Results reported in patent publication US20230331785A1 (priority 2018, published 2023).

How the values were obtained:
Details in all cases: human
[1] = test system: HER2 positive HCC1954 cells
[2] = test system: HER2 positive NCI/ADR-RES cells (NCI/ADR-RES-HER2+)
[3] = test system: HER2 positive JIMT-1 cells
HCC1569 cells = test system: HCC1569 cells
NCI-N87 cells = test system: NCI-N87 cells

## CS(=O)(=O)CCNCc1ccc(-c2ccc3ncnc(Nc4ccc(OCc5cccc(F)c5)c(Cl)c4)c3c2)o1 [lapatinib]
[1]
  In Vitro Cytotoxicity CD50, HCC1954: 786 nM
[2]
  In Vitro Cytotoxicity CD50, NCI/ADR-RES-HER2+: 2,704 nM
[3]
  In Vitro Cytotoxicity CD50, JIMT-1: 5,650 nM
HCC1569 cells
  In Vitro Cytotoxicity CD50, HCC1569: 885 nM
NCI-N87 cells
  In Vitro Cytotoxicity CD50, NCI-N87: 112 nM
